Read-outs that look alike come from different tables or passages of the source.
Legend:
[1] = Food effect (high-fat meal vs 8-10 hour fast) on pharmacokinetics of tazarotenic acid after oral tazarotene in normal healthy subjects; type: in vivo, human; conditions: 6.3 mg oral tazarotene, fed vs fasted
Source text: For the purposes of this application, the bioavailability of a drug may be based on the human pharmokinetic parameters of maximum blood concentration (Cmax) and Area under the blood concentration-time curve (AUC).

[2] = Patient with severe psoriasis taking Ortho-Novum treated with tazarotene; type: in vivo, human; conditions: female, human, in vivo, tazarotene 6 mg per day, mean ±SD
Source text: The patient presents symptoms of severe psoriasis. The symptoms include lesions approximately 4 to 10 centimeters across appearing as raised patches of wine red skin many of which are covered in silvery white scales. The lesions are mostly dry and rough, and quite often noticeably warm to the touch. The lesions are present on the elbows, knees, scalp, and groin area. The patient experiences intense burning and itching associated with the lesions.
The patient is currently taking Ortho-Novum® for contraception.
Tazarotene at a dose of 6 mg per day is prescribed.

[3] = test system: RARs; experiment: RAR activation; type: cell-based
[4] = test system: RXRs; experiment: RXR activation; type: cell-based
[5] = target: T1, RAR-α (Homo sapiens, UniProt P10276); experiment: RAR-α activity; type: cell-based
T1 sequence (P10276 1-462): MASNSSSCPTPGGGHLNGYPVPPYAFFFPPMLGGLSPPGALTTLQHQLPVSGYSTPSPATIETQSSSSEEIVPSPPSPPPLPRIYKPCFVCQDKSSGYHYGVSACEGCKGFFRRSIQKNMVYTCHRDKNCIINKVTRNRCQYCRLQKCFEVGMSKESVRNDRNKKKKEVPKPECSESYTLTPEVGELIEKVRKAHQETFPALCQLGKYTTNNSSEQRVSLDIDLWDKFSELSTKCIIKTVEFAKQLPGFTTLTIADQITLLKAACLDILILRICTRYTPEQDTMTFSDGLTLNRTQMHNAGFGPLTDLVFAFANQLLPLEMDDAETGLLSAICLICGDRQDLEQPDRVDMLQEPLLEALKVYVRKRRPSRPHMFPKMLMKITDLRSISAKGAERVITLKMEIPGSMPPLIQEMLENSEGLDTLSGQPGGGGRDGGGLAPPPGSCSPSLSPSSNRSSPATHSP

[6] = published data (N = 525); cited from earlier work
[7] = oral, cited from earlier work
[8] = cited from earlier work
[9] = published data (N = 525); cited from earlier work; remark: listed apart in the source

Compound: CC1(C)CCSc2ccc(C#Cc3ccc(C(=O)O)cn3)cc21 [tazarotenic acid]
- 90% confidence intervals (CI) of AUC ratios (test/reference) [1]: completely within the 80-125% boundary
- Effect of high-fat meal on bioavailability or pharmacokinetics of tazarotenic acid ([1]; single and multiple dose): does not substantially affect
- AUC(0-t) ([2]; read-out: AUC0-24 for tazarotenic acid): 379 ± 78 ng·h/mL
- Cmax ([2]; read-out: Cmax for tazarotenic acid): 111 ± 37 ng/mL
- receptor specificity and selectivity ([3]; RARs, RAR-β and RAR-γ): specificity for the RARs and selectivity for RAR-β and RAR-γ
- activation of the RXRs [4]: does not activate the RXRs
- RAR-α activity [5]: minimal RAR-α activity

Compound: CC1=C(/C=C/C(C)=C/C=C/C(C)=C\C(=O)O)C(C)(C)CCC1 [isotretinoin]
- Cheilitis [6]: 472 (90.2) number (%) of patients
- Conjunctivitis [6]: 201 (38.4) number (%) of patients
- Desquamation central face/Desquamation [6]: 187 (35.8) number (%) of patients
- Dry Skin [6]: 172 (32.9) number (%) of patients
- Dry nose [6]: 136 (26.0) number (%) of patients
- Epistaxis [6]: 121 (23.1) number (%) of patients
- Fingertip peeling/Desquamation [6]: 63 (12.0) number (%) of patients
- Headache [6]: 44 (8.4) number (%) of patients
- Irritation of eyes [6]: 85 (16.3) number (%) of patients
- Pruritus [6]: 127 (24.3) number (%) of patients
- Red Scaly face/Desquamation [6]: 54 (10.3) number (%) of patients
- Skin fragility/Skin disorder [6]: 164 (31.4) number (%) of patients
- total dose needed to reach the same peak blood concentration in the fasted state as following a high fat meal ([7]; fasted vs high fat meal): more than doubled
- impact of food on bioavailability [7]: bioavailability is increased in the presence of food
- effect on blood concentrations of ethinyl estradiol and norethindrone ([8]; coadministered contraceptive tablets): decreases blood concentrations

Compound: C=C(c1ccc(C(=O)O)cc1)c1cc2c(cc1C)C(C)(C)CCC2(C)C [bexarotene]
- impact of food on bioavailability [7]: bioavailability is increased in the presence of food
- effect on plasma concentration of tamoxifen ([8]; coadministration with tamoxifen): reduced plasma concentration of tamoxifen

Compound: CC1(C)CC[S+]([O-])c2ccc(C#Cc3ccc(C(=O)O)cn3)cc21 (centres unmarked) [AGN 190844]
- activation of the RARs [3]: does not activate either the RARs or the RXRs
- activation of the RXRs [4]: does not activate either the RARs or the RXRs

Compound: COc1cc(C)c(/C=C/C(C)=C/C=C/C(C)=C/C(=O)O)c(C)c1C [acitretin]
- Alopecia [9]: 319 (60.8) number (%) of patients
- Arthralgia [9]: 102 (19.4) number (%) of patients
- Atrophy of skin [9]: 64 (12.2) number (%) of patients
- Back pain [9]: 41 (7.8) number (%) of patients
- Cheilitis [9]: 429 (81.7) number (%) of patients
- Dry Skin [9]: 174 (33.1) number (%) of patients
- Dry mouth/Oral dryness [9]: 76 (14.5) number (%) of patients
- Epistaxis [9]: 61 (11.6) number (%) of patients
- Erythematous rash/Erythema [9]: 57 (10.9) number (%) of patients
- Hyperesthesia [9]: 66 (12.6) number (%) of patients
- Nail Disorder [9]: 170 (32.4) number (%) of patients
- Paresthesia [9]: 56 (10.7) number (%) of patients
- Paronychia/Nail disorder [9]: 66 (12.6) number (%) of patients
- Pruritus [9]: 157 (29.9) number (%) of patients
- Rhinitis [9]: 153 (29.1) number (%) of patients
- Rigors/Chills [9]: 67 (12.8) number (%) of patients
- Skin peeling/Desquamation [9]: 345 (65.7) number (%) of patients
- Sticky skin/Skin disorder [9]: 129 (24.6) number (%) of patients
- Xerophthalmia/Eye disorder [9]: 112 (21.3) number (%) of patients
- impact of food on bioavailability [7]: bioavailability is increased in the presence of food
- effect on contraceptive effect of microdosed progestin “minipill” preparations ([8]; in vivo): interferes with the contraceptive effect

From patent US20050026950A1, “Methods of therapeutic treatment using retinoids to achieve consistent bioavailability” (Allergan, Inc., priority 2003, published 2005)
